Molecular target: c-Src kinase domain (Homo sapiens, UniProt P12931)
Assay: pTyr-Var library bacterial peptide display kinase screen (enrichment scores)
Format: biochemical
Conditions: not given

Sequence | Screen
FSQQTYFPVSN [ABCD1_Y180_R182P_YF] | 1.076

Same assay, conditions: sheet "Src"; effect of the variant peptide against its reference peptide, seen in the pTyr-Var library screen

Sequence | Screen
AKAFIYASHIV [ZNF573_Y229_G224A] | 0.3183

Same assay, conditions: sheet "Src"; effect of the variant peptide relative to its reference peptide in the pTyr-Var library screen

Sequence | Screen
ACLSLYGGFVE [MVD_Y164_R161L] | -0.5782
AMGPVYQAAAL [HYOU1_Y421_A419P] | 0.5389
CTHDLYMFMRE [FGFR3_Y724_I726F] | 0.09652
DPLLTYQFPPK [LMNA_Y481_R482Q] | 1.304
ELQGTYTSLQQ [KIF3C_Y574_R571Q] | 1.278
FKEDPYLVVNP [MCM6_Y810_E806K_YF] | -0.4166
FQKNVYSEELR [LMNA_Y211_I210V] | -1.452
FSMGCYEFSLG [HMGCL_Y198_I200F_YF] | -0.3724
GENTVYAQVFN [LY9_Y603_M602V] | 1.086
ICGVSYDEFRF [CFTR_Y512_F508C_YF] | -0.6525
KVPAIYGVGTR [CPS1_Y162_D165G] | 1.669
LQKNIYSEELR [LMNA_Y211_F206L] | -1.475
PAIFTYDEFKK [COL8A2_Y648_T645I_YF] | 0.8342
PQAVTYAEVKH [LILRB4_Y360_K362E] | 2.83
SSFDTYHLSRE [KIR3DL2_Y253_I252T_YF] | -1.121
SSSNPYSTVTV [ACTN2_Y599_M604V] | -0.5875
TDTQLYGRFGS [ITGA2B_Y384_G380D] | -0.04787
VFGVSYDEFRF [CFTR_Y512_I507V_YF] | 0.2836
VVKTVYSLQPS [KNSTRN_Y87_P92S] | -0.2694

Same assay, conditions: sheet "Src"; variant peptide versus its reference peptide in the pTyr-Var library screen

Sequence | Screen
AEFGLYRAMVR [VSX2_Y222_G223R_YF] | -2.091
AGIVVYNIIGW [MYH7_Y588_D587V] | 2.236
AQMAMYFWEMS [TRPM4_Y577_G582S] | -0.06271
DFPGIYSGFDD [POLR1C_Y33_N32I_YF] | 3.694
ETEMLYGSARR [PRC1_Y464_P468R] | -0.8951
FEPWVYSLSFE [PRKDC_Y647_F649L_YF] | 0.05044
FKEVVYQAMEE [TACC3_Y684_E680K] | -0.2069
GFEEAYSVSKK [PAFAH1B1_Y28_F31S_YF] | -2.622
GFFDLYGGEKF [PTPN11_Y66_D61G_YF] | -0.05122
GSSKIYFLHAD [TLR5_Y108_P112A] | -1.042
HITQVYGFFDE [PPP2CA_Y127_Q122H_YF] | 0.5425
IATTIYSGDKI [UGGT2_Y823_A821T] | -1.846
KDQGIYEDFVE [MYL6_Y86_T85I_YF] | 1.232
KGSLPYSLILD [PKD1L2_Y406_N407S] | 1.59
KRAAIYNPVIF [RHO_Y301_S297R_YF] | -1.114
LREKVYVSLEA [RXRA_Y397_A398V] | -2.342
MFNPCYGLFEF [NEDD4L_Y680_Y679C_YF] | -0.1736
PKDSAYVTWEP [TTN_Y20731_S20726P] | 0.3327
QMIETYFDFRV [NSMF_Y506_L511V] | -0.8869
TQPSPYAVFLF [RPGRIP1_Y823_R827L_YF] | -0.4188
VVSLFYGTALF [OR10C1_Y251_M246V] | -0.3109

Tested on: EPHB1 kinase domain
Assay: as above
Format: biochemical, human
Conditions: sheet "EPHB1"; variant seq vs reference seq; bacterial peptide display enrichment

Sequence | Screen (variant relative to reference peptide, measured in the pTyr-Var library screen)
HLGNQYVNVMN [SLC3A1_Y461_R456H] | -0.5071
SEKISYVFMKR [SSX7_Y48_L43S_YF] | -1.247

Same assay, conditions: sheet EPHB1; effect of the variant peptide relative to its reference peptide in the pTyr-Var library screen (enrichment scores)

Sequence | Screen
CTHDLYMFMRE [FGFR3_Y724_I726F] | 0.1536
GENTVYAQVFN [LY9_Y603_M602V] | 0.06415
HLLRIYFDITD [MMP27_Y307_W304L_YF] | 0.4409
ICFSDYVEVAD [PHACTR1_Y525_R521C] | 0.304
KKHIPYRQHKS [CSNK1G2_Y206_E208Q] | 0.2176
LKRCQYVTKKV [ALDOA_Y204_E207K] | -1.465
LLASGYDSPIN [ABLIM1_Y638_R637G] | -0.7648
LQKNIYSEELR [LMNA_Y211_F206L] | 0.6923
PQAVTYAEVKH [LILRB4_Y360_K362E] | 2.401
PVGVLYEVKVF [PTS_Y128_K129E_YF] | 0.4109
QAIDEYEKWLE [MAP9_Y603_N601D] | -0.2835
QMIETYFDFRV [NSMF_Y506_L511V] | -0.6862
QRASDYFSQQM [GBP6_Y333_A331S_YF] | 1.684
RDLHTYIMPAH [PNMT_Y256_R254H] | -2.793
RSSGSYGGGGQ [HNRNPA1_Y341_P340S] | 0.1057
TQPSPYAVFLF [RPGRIP1_Y823_R827L_YF] | -0.3084
TTPFNYSFIFK [RAB14_Y8_A4T_YF] | 0.03762
VKMLPYTEVTR [GDI1_Y93_L92P] | -2.754

Tested on: Fer kinase domain
Assay: as above
Format: biochemical, mouse
Conditions: sheet "Fer"; value of the variant peptide against its reference peptide in the pTyr-Var library screen with Fer

Sequence | Screen
AMGPVYQAAAL [HYOU1_Y421_A419P] | 1.97
CSRCFYQLTKL [AR_Y858_R856C] | 1.959
ETEMLYGSARR [PRC1_Y464_P468R] | -2.34
FLTQHYDAIPQ [ANG_Y38_K41I] | 3.881
FSMGCYEFSLG [HMGCL_Y198_I200F_YF] | 0.8119
GENTVYAQVFN [LY9_Y603_M602V] | 0.3094
ICGVSYDEFRF [CFTR_Y512_F508C_YF] | -0.3864
KDQGIYEDFVE [MYL6_Y86_T85I_YF] | 1.02
KKHIPYRQHKS [CSNK1G2_Y206_E208Q] | 0.3167
MFNPCYGLFEF [NEDD4L_Y680_Y679C_YF] | -0.1579
NAGAFYVLSTL [FLVCR2_Y325_A326V] | -2.63
PAIFTYDEFKK [COL8A2_Y648_T645I_YF] | -2.501
QRRNVYFFSFL [PTEN_Y176_Y174N_YF] | -1.418
QTEAPYRFIFM [PTPN11_Y511_Q510P_YF] | 2.526
SKHHLYSDLQT [PTCHD1_Y84_R82H] | 1.431
SSSNPYSTVTV [ACTN2_Y599_M604V] | -0.1641
TRDVNYGWIIH [MT-CYB_Y75_R80H] | 3.39
VDEVLYEDSSA [MTHFS_Y197_T202A] | -0.2341
VFGVSYDEFRF [CFTR_Y512_I507V_YF] | 0.375

Same assay, conditions: sheet "Fer"; variant peptide relative to its reference peptide, pTyr-Var library screen enrichment

Sequence | Screen
AKAFIYASHIV [ZNF573_Y229_G224A] | 0.4356
KNNSIYVLANI [VNN1_Y134_V136L] | 1.88
KRAAIYNPVIF [RHO_Y301_S297R_YF] | -0.6585
PKDSAYVTWEP [TTN_Y20731_S20726P] | 0.6125
PVGVLYEVKVF [PTS_Y128_K129E_YF] | 1.639
QDRTFYERVRT [SPEN_Y633_S635R_YF] | -1.346
TQPSPYAVFLF [RPGRIP1_Y823_R827L_YF] | -0.3535
VQVAFYTVMMN [SPATA17_Y84_M86V_YF] | -1.379

Molecular target: T1, c-Abl kinase domain (Mus musculus, UniProt P00520)
T1 sequence (P00520 242-493 limits assumed): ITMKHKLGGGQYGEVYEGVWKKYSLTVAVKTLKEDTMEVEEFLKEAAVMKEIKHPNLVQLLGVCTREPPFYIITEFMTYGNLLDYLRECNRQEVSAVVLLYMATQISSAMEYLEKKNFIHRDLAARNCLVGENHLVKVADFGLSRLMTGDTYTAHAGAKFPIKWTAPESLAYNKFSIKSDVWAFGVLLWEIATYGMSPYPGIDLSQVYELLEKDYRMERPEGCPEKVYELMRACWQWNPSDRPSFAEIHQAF
Assay: as above
Format: biochemical
Conditions: fig5-data2, sheet "Abl"; Screen for the variant/reference peptide pair, pTyr-Var library

Sequence | Screen
AALSAYAPQRP [PTPRN2_Y249_A251P] | -0.5816
AATTAYSKPKQ [MAP3K7_Y405_R410Q] | -0.9283
ADLVQYFMEHH [PTPN11_Y80_E76D_YF] | 0.02377
DAAEDYAEGVC [DHODH_Y194_R199C] | -0.7613
DCLASYLDKVR [KRT16_Y131_R127C] | 1.893
DDSNPYINVKL [MTHFD1_Y52_L51P] | -0.8391
DENWFYTQAAS [RPS19_Y54_R56Q] | 0.05995
DHPSEYAARQL [ANXA13_Y90_R86H] | 0.8208
EFSNQYKATIG [RAB7A_Y37_K32E] | 1.976
FDKPVYQKTTE [LDLR_Y828_N825K] | 0.7779
FEPWVYSLSFE [PRKDC_Y647_F649L_YF] | -0.5163
FIGVTYKNKED [PDGFRA_Y993_E996K_YF] | -0.7207
FKEDPYLVVNP [MCM6_Y810_E806K_YF] | -1.709
FRAVKYLQMVG [AVPR2_Y117_C112Y_YF] | 1.48
FRDALYKSMVD [PHEX_Y250_F252S_YF] | 1.216
FRQNGYIPGSN [PCDHGB2_Y895_V894G_YF] | -0.7593

Sequence | Screen
FSMGCYEFSLG [HMGCL_Y198_I200F_YF] | 1.5
FVPSNYVAEDR [FRK_Y104_I100V_YF] | 0.1639
GFGGGYGGVLT [KRT19_Y65_A60G_YF] | -0.6696
HGAKVYIDPFT [EPHB4_Y590_T587A] | 1.249
ICFSDYVEVAD [PHACTR1_Y525_R521C] | 1.249
IGVDSYSVCKR [RPS6KA3_Y433_G431D] | 0.006002
INITIYGKTFH [EFHC1_Y177_R182H] | 2.247
ISNATYKQIGL [FLT1_Y199_E201Q] | -0.6358
LVLIKYLPEWT [PSEN1_Y240_F237L] | 1.753
MLEAPYVDRNS [F10_Y384_V382A] | 1.1
PSPTKYSLSPS [RANBP2_Y785_R784K] | 1.871
RILENYGADID [DNAH5_Y596_L591R] | -0.1652
RKLVDYDSAQH [BIN1_Y150_R154Q] | -0.7012
SSTAMYSAAGR [PSMB1_Y8_P11A] | -0.5664
TVHPGYGFLSE [PCCA_Y143_A138T] | 1.846

Same assay, conditions: sheet "Abl"; effect of variant peptide relative to its reference peptide in pTyr-Var library screen (enrichment)

Sequence | Screen
ADRNHYRRFRR [YBX1_Y145_P149R_YF] | -2.647
AEFGLYRAMVR [VSX2_Y222_G223R_YF] | 2.423
DLQDEYDFKRK [STAT1_Y170_C174R] | -1.312
IVRSPYEDLED [VHL_Y185_L184P] | 0.8994
KNNSIYVLANI [VNN1_Y134_V136L] | -3.297
LLSVAYKNVVR [YWHAZ_Y48_G53R] | 1.295
LLTKVYVVEGS [ZMPSTE24_Y253_P248L] | -5.536
MKKMHYVDPDR [ST3GAL5_Y99_H104R] | -0.8054
MNKNAYHNVTT [ST3GAL6_Y306_A311T] | -0.8996
NPQKSYFICLF [WAS_Y83_R86C_YF] | 3.12
QTSSNYDDAMQ [ZNF281_Y531_I527T] | -4.858
RLAKRYLIWEC [SCN5A_Y694_Q692K] | -1.185
SGEKPYKCSVC [ZNF543_Y283_E287V] | 3.958
SGSFRYGSSFE [SELE_Y390_C394F] | -0.02524
VIIVLYFSLWK [SLC6A2_Y249_V245I] | -0.9059

From PMC10065799, “High-throughput profiling of sequence recognition by tyrosine kinases and SH2 domains using bacterial peptide display” (eLife, 2023)
